Measured values published in patent publication US11767341B2, “Lincosamide antibiotics and uses thereof” (President and Fellows of Harvard College, priority 2017, dated 2023).
In brackets after ≈: the same amount, converted by molar mass. Where two headings read alike, the source gives them in different places.

How the values were obtained:
Assay in all cases: MIC determination
Type in all cases: cell-based
[1] = tested on: S. aureus ATCC 29213; settings: Staphylococcus aureus
[2] = tested on: S. pyogenes ATCC 19615; settings: Streptococcus pyogenes, ATCC19615; S. pyogenes ATCC 19615; read-out: MIC
[3] = tested on: S. pneumoniae MMX 3028 cErmB; settings: Streptococcus pneumoniae, MMX3028CERMB
[4] = tested on: S. pneumoniae ATCC 49619; settings: Streptococcus pneumoniae, ATCC49619
[5] = tested on: B. fragilis ATCC 25285; settings: Bacteroides fragilis, ATCC25285
[6] = tested on: H. influenzae ATCC 49247; settings: Haemophilus influenzae, ATCC49247
[7] = tested on: E. coli ATCC 25922; settings: Escherichia coli
[8] = tested on: E. coli MMX 0121 ΔTolC; settings: Escherichia coli
[9] = tested on: E. faecalis MMX 847 Macrolide-Resistant; settings: Enterococcus faecalis
[10] = tested on: S. pyogenes MMX 946 Macrolide-Resistant; settings: Streptococcus pyogenes
[11] = tested on: S. pneumoniae MMX 3031 cMefA; settings: Streptococcus pneumoniae, MMX3031CMEFA
[12] = tested on: S. aureus MMX 3035 cErmA; settings: Staphylococcus aureus, MMX3035CERMA
[13] = tested on: P. aeruginosa MMX 3476 Δmex; settings: Pseudomonas aeruginosa
[14] = tested on: E. coli MMX TolC parent strain; settings: Escherichia coli
[15] = tested on: S. aureus BAA 977 iErmA; settings: Staphylococcus aureus, BAA977
[16] = tested on: E. faecalis ATCC 29212; settings: Enterococcus faecalis
[17] = tested on: S. aureus Micromyx USA 300; settings: Staphylococcus aureus, USA300; S. aureus Micromyx USA 300; read-out: MIC
[18] = tested on: C. difficile BAA 1805; settings: Clostridioides difficile, BAA1805
[19] = tested on: P. aeruginosa MMX Mex parent strain; settings: Pseudomonas aeruginosa
[20] = tested on: P. aeruginosa ATCC 27853; settings: Pseudomonas aeruginosa, ATCC27853
[21] = tested on: K. pneumoniae ATCC 10031; settings: Klebsiella pneumoniae, ATCC10031
[22] = tested on: S. aureus MP-549 msr(a) USA 300; settings: Staphylococcus aureus, USA300, S. aureus MP-549 msr(a) USA 300
[23] = tested on: E. coli MP-9 ΔTolC; settings: Escherichia coli
[24] = tested on: E. coli MP-74 LptD mutant; settings: Escherichia coli
[25] = ATCC29213, S. aureus ATCC 29213, read-out: MIC
[26] = S. pneumoniae ATCC 49619, read-out: MIC
[27] = ATCC25922, E. coli ATCC 25922, read-out: MIC
[28] = E. faecalis MMX 847 Macrolide-Resistant (MacRes), read-out: MIC
[29] = S. pyogenes MMX 946 Macrolide-Resistant (MacRes), read-out: MIC
[30] = S. aureus MMX 3035 cErmA, read-out: MIC
[31] = C. difficile BAA 1805, read-out: MIC
[32] = S. pneumoniae MMX 3028 cErmB, read-out: MIC
[33] = K. pneumoniae ATCC 10031, read-out: MIC

| SMILES | MIC [1, 25] | MIC [2] | MIC [3] | MIC [4, 26] | MIC [7, 27] | MIC [8] | MIC [9, 28] | MIC [11] | MIC [13] | MIC [15] | MIC ([16]; ATCC29212, read-out: MIC) | MIC [17] | MIC [18, 31] | MIC [19] | MIC [20] | MIC [6] | MIC ([7]; ATCC25922) | MIC [12] | MIC [22] | MIC [23] | also measured |
| --- | --- | --- | --- | --- | --- | --- | --- | --- | --- | --- | --- | --- | --- | --- | --- | --- | --- | --- | --- | --- | --- |
| CSC1O[C@H]([C@H](NC(=O)[C@H]2NC[C@@H]3CC(c4ccc(C(F)(F)F)cc4)=CCO[C@H]32)[C@H](C)Cl)C(O)[C@@H](O)[C@H]1O (stereo partly shown) [FSA-507060] | 2 mg/L (≈ 3.44 µM) | 0.25 mg/L (≈ 0.43 µM) | 16 mg/L (≈ 27.5 µM) | 0.5 mg/L (≈ 0.861 µM) | 64 mg/L (≈ 110 µM) | 16 mg/L (≈ 27.5 µM) | 32 mg/L (≈ 55.1 µM) | 0.25 mg/L (≈ 0.43 µM) | > 64 mg/L | 1 mg/L (≈ 1.72 µM) | 8 mg/L (≈ 13.8 µM) | 0.5 mg/L (≈ 0.861 µM) | 32 mg/L (≈ 55.1 µM) | > 64 mg/L | > 64 mg/L | – | – | – | – | – | MIC ([5]; B. fragilis ATCC 25285, read-out: MIC): 32 mg/L (≈ 55.1 µM); MIC ([6]; H. influenzae ATCC 49247, read-out: MIC): 32 mg/L (≈ 55.1 µM); MIC [10, 29]: 32 mg/L (≈ 55.1 µM); MIC [12, 30]: 32 mg/L (≈ 55.1 µM); MIC ([14]; E. coli MMX TolC parent strain, read-out: MIC): 64 mg/L (≈ 110 µM) |
| CSC1O[C@H]([C@H](NC(=O)[C@H]2NC[C@@H]3C=C(c4ccc(F)cc4)CCO[C@@H]23)[C@H](C)Cl)C(O)[C@@H](O)[C@H]1O (stereo partly shown) [FSA-507052] | 2 mg/L (≈ 3.77 µM) | 0.25 mg/L (≈ 0.471 µM) | > 32 mg/L | 0.25 mg/L (≈ 0.471 µM) | – | > 32 mg/L | – | 0.12 mg/L (≈ 0.226 µM) | > 32 mg/L | 2 mg/L (≈ 3.77 µM) | 1 mg/L (≈ 1.88 µM) | 0.5 mg/L (≈ 0.942 µM) | 16 mg/L (≈ 30.1 µM) | > 32 mg/L | > 32 mg/L | > 32 mg/L | > 32 mg/L | > 32 mg/L | – | – | MIC [5]: > 32 mg/L; MIC [9]: > 32 mg/L; MIC [10]: > 32 mg/L; MIC [14]: > 32 mg/L |
| CSC1O[C@H]([C@H](NC(=O)[C@@H]2[C@@H]3OCC=CC[C@H]3CN2C)[C@H](C)Sc2ccc(-c3cccnc3)cc2)C(O)[C@@H](O)[C@H]1O (stereo partly shown) [FSA-213064] | 0.25 mg/L (≈ 0.415 µM) | ≤ 0.125 mg/L | – | ≤ 0.125 mg/L | > 64 mg/L | – | > 64 mg/L | 0.125 mg/L (≈ 0.208 µM) | – | 0.25 mg/L (≈ 0.415 µM) | 32 mg/L (≈ 53.2 µM) | – | – | – | – | – | – | 16 mg/L (≈ 26.6 µM) | 0.25 mg/L (≈ 0.415 µM) | 16 mg/L (≈ 26.6 µM) | MIC [3, 32]: 8 mg/L (≈ 13.3 µM); MIC [21, 33]: 64 mg/L (≈ 106 µM); MIC [10, 29]: 2 mg/L (≈ 3.32 µM); MIC ([20]; P. aeruginosa ATCC 27853, read-out: MIC): > 64 mg/L |
| CSC1O[C@H]([C@H](NC(=O)[C@H]2NC[C@@H]3CC(N)CCO[C@H]32)[C@H](C)Cl)C(O)[C@@H](O)[C@H]1O (stereo partly shown) [FSA-510012] | – | 32 mg/L (≈ 70.5 µM) | – | – | – | – | – | – | – | > 64 mg/L | – | – | – | – | – | > 64 mg/L | > 64 mg/L | – | > 64 mg/L | > 64 mg/L | MIC ([1]; ATCC29213): > 64 mg/L; MIC [21]: > 64 mg/L; MIC [4]: > 64 mg/L; MIC [24]: > 64 mg/L; MIC ([16]; ATCC29212): > 64 mg/L; MIC [18]: > 64 mg/L |
| CSC1O[C@H]([C@H](NC(=O)[C@H]2NC[C@@H]3CC(c4ccc(F)cc4)=CCO[C@H]32)[C@H](C)Cl)C(O)[C@@H](O)[C@H]1O (stereo partly shown) [FSA-507057] | 2 mg/L (≈ 3.77 µM) | 0.12 mg/L (≈ 0.226 µM) | 64 mg/L (≈ 121 µM) | ≤ 0.06 mg/L | – | 64 mg/L (≈ 121 µM) | – | ≤ 0.06 mg/L | > 64 mg/L | 1 mg/L (≈ 1.88 µM) | 1 mg/L (≈ 1.88 µM) | 0.5 mg/L (≈ 0.942 µM) | 16 mg/L (≈ 30.1 µM) | > 64 mg/L | > 64 mg/L | 64 mg/L (≈ 121 µM) | > 64 mg/L | > 64 mg/L | – | – | MIC [5]: 64 mg/L (≈ 121 µM); MIC [9]: > 64 mg/L; MIC [10]: > 64 mg/L; MIC [14]: > 64 mg/L |
| CSC1O[C@H]([C@H](NC(=O)[C@H]2NC[C@@H]3C[C@@H](c4cccc(F)c4)CCO[C@H]32)[C@H](C)Cl)C(O)[C@@H](O)[C@H]1O (stereo partly shown) [FSA-511077] | 0.25 mg/L (≈ 0.469 µM) | ≤ 0.06 mg/L | – | ≤ 0.06 mg/L | > 64 mg/L | – | – | ≤ 0.06 mg/L | – | 0.25 mg/L (≈ 0.469 µM) | 0.5 mg/L (≈ 0.938 µM) | – | – | – | – | 16 mg/L (≈ 30 µM) | – | – | 0.25 mg/L (≈ 0.469 µM) | 4 mg/L (≈ 7.5 µM) | MIC [3, 32]: 8 mg/L (≈ 15 µM); MIC [21, 33]: 8 mg/L (≈ 15 µM); MIC ([9]; E. faecalis MMX 847 MacRes, read-out: MIC): 64 mg/L (≈ 120 µM); MIC ([10]; S. pyogenes MMX 946 MacRes, read-out: MIC): 32 mg/L (≈ 60 µM); MIC [24]: 16 mg/L (≈ 30 µM); MIC [12, 30]: > 64 mg/L |
